Measured values: patent US10266497B2 (ABIDE THERAPEUTICS, INC., priority 2017, dated 2019)

How the values were obtained:
[1] = target: T1, MAGL (Mus musculus, UniProt O35678); test: In vitro competitive activity-based protein profiling, MAGL, mouse; conditions: read-out: MAGL % inh. 1 μM (mouse)
T1 sequence (O35678 1-303): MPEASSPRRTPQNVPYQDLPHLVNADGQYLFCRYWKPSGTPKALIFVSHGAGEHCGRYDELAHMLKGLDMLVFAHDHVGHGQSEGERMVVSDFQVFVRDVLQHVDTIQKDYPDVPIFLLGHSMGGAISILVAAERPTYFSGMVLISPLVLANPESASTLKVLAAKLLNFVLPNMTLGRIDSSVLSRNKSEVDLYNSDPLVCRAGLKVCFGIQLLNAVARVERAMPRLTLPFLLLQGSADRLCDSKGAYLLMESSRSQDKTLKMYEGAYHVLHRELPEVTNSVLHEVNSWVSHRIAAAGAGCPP

[2] = target: T2, FAAH (Homo sapiens, UniProt O00519); test: In vitro competitive activity-based protein profiling, FAAH, human; conditions: for inhibition at 1 µM: read-out: FAAH % inh. 1 μM (human)
T2 sequence (O00519 1-579): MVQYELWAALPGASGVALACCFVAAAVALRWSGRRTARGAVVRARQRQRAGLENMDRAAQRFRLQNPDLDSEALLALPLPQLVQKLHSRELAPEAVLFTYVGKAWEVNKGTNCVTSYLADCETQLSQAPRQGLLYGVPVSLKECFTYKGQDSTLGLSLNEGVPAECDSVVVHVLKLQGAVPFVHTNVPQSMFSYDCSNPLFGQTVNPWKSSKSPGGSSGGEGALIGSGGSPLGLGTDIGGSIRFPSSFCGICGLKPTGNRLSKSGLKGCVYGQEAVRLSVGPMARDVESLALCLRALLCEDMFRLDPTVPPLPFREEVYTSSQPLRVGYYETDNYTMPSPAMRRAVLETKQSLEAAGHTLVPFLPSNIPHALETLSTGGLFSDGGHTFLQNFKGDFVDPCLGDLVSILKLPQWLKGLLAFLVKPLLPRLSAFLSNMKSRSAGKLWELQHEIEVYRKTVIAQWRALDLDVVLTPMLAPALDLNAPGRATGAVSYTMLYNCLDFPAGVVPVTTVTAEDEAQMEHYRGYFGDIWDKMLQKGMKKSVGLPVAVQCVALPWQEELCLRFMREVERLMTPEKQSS

[3] = target: T3, MAGL (Homo sapiens, UniProt Q99685); test: In vitro competitive activity-based protein profiling, MAGL, human; conditions: for inhibition at 1 µM: read-out: MAGL % inh. 1 μM (human)
T3 sequence (Q99685 1-303): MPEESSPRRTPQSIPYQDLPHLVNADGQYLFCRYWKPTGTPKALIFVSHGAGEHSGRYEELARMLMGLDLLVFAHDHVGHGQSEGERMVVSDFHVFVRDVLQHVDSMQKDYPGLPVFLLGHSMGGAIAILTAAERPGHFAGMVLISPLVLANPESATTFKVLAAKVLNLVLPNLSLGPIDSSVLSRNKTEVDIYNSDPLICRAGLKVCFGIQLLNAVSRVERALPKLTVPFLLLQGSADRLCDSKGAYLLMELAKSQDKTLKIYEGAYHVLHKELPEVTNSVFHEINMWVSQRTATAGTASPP

[4] = target: T4, FAAH (Mus musculus, UniProt O08914); test: In vitro competitive activity-based protein profiling, FAAH, mouse; conditions: read-out: FAAH % inh. 1 μM (mouse)
T4 sequence (O08914 1-579): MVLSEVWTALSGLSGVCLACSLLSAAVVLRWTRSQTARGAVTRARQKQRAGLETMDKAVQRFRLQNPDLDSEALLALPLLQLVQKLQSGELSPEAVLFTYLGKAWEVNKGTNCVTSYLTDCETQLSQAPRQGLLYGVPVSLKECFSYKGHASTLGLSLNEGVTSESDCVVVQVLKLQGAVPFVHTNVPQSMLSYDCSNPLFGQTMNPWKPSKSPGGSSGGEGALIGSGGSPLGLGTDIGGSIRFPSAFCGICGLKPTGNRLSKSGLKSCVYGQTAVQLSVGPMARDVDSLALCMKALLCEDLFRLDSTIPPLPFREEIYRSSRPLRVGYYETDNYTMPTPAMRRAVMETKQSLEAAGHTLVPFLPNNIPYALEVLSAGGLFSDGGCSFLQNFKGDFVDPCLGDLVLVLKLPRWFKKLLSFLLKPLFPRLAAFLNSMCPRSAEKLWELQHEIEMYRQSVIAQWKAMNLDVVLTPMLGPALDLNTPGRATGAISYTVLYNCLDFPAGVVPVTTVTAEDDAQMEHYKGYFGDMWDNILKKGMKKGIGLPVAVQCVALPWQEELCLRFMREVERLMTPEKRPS

SMILES	inhibition at 1 µM [1]	IC50 [2]	inhibition at 1 µM [2]	inhibition at 1 µM [3]	inhibition at 1 µM [4]	IC50 [3]
CN(Cc1cccc(-c2ccccc2)c1)[C@@H]1C[C@@H]2CN(C(=O)n3ccc(C(=O)O)n3)C[C@@H]2C1 [Example 163, 1-(cis-5-(([1,1′-biphenyl]-3-ylmethyl)(methyl)amino)octahydro-cyclopenta[c]pyrrole-2-carbonyl)-1H-pyrazole-3-carboxylic acid]	0 to 25%	–	25 to 50%	0 to 25%	0 to 25%	–
O=C(O)c1ccn(C(=O)N2C[C@H]3C[C@@H](Oc4cccc(-c5ccccc5)c4)C[C@H]3C2)n1 [Example 164, 1-(cis-5-([1,1′-biphenyl]-3-yloxy)octahydro-cyclopenta[c]pyrrole-2-carbonyl)-1H-pyrazole-3-carboxylic acid]	> 75%	100 to 1000 nM	> 75%	> 75%	25 to 50%	–
O=C(O)c1ccn(C(=O)N2CC3CN(Cc4ccc(Cl)c(N5CC6COCC6C5)c4)CC3C2)n1 (centres unmarked) [Example 166, 1-(5-(4-chloro-3-(tetrahydro-1H-furo[3,4-c]pyrrol-5(3H)-yl)benzyl)octahydropyrrolo[3,4-c]pyrrole-2-carbonyl)-1H-pyrazole-3-carboxylic acid]	> 75%	–	0 to 25%	50 to 75%	0 to 25%	–
O=C(O)c1ccn(C(=O)N2CCN(Cc3ccc(N4CCCC4)cc3C(F)(F)F)CC2)n1 [Example 167, 1-(4-(4-(pyrrolidin-1-yl)-2-(trifluoromethyl)benzyl)piperazine-1-carbonyl)-1H-pyrazole-3-carboxylic acid]	> 75%	1000 to 10000 nM	25 to 50%	> 75%	0 to 25%	–
Cc1cc(CO[C@H]2C[C@@H]3CN(C(=O)n4ccc(C(=O)O)n4)C[C@@H]3C2)ccc1C(F)(F)F [Example 172, 1-(trans-5-((3-methyl-4-(trifluoromethyl)benzyl)oxy)octa-hydrocyclopenta[c]pyrrole-2-carbonyl)-1H-pyrazole-3-carboxylic acid]	> 75%	–	> 75%	> 75%	50 to 75%	–
NC(=O)c1ccn(C(=O)N2CCN(Cc3ccc(C(F)(F)F)cc3N3CCCC3)CC2)n1 [Example 173, 1-(4-(2-(pyrrolidin-1-yl)-4-(trifluoromethyl)benzyl)piperazine-1-carbonyl)-1H-pyrazole-3-carboxamide]	> 75%	–	> 75%	> 75%	50 to 75%	–
NC(=O)c1ccn(C(=O)N2CCC3(CCCN3Cc3ccc(C(F)(F)F)cc3N3CCCC3)CC2)n1 [Example 174, 1-(1-(2-(pyrrolidin-1-yl)-4-(trifluoromethyl)benzyl)-1,8-diazaspiro[4.5]decane-8-carbonyl)-1H-pyrazole-3-carboxamide]	> 75%	–	0 to 25%	> 75%	25 to 50%	–
NC(=O)c1ccn(C(=O)N2CCN(Cc3cnccc3C(F)(F)F)CC2)n1 [Example 175, 1-(4-((4-(trifluoromethyl)pyridin-3-yl)methyl)piperazine-1-carbonyl)-1H-pyrazole-3-carboxamide]	> 75%	100 to 1000 nM	> 75%	> 75%	> 75%	–
CN(Cc1cccc(C(F)(F)F)c1)C1CCN(C(=O)n2ccc(C(N)=O)n2)CC1 [Example 176, 1-(4-(methyl(3-(trifluoromethyl)benzyl)amino)piper-idine-1-carbonyl)-1H-pyrazole-3-carboxamide]	> 75%	–	> 75%	> 75%	> 75%	–
NC(=O)c1ccn(C(=O)N2CCN(Cc3ccc(Cl)cc3)CC2)n1 [Example 181, 1-(4-(4-chlorobenzyl)pipera-zine-1-carbonyl)-1H-pyrazole-3-carboxamide]	> 75%	–	> 75%	> 75%	> 75%	–
NC(=O)c1ccn(C(=O)N2CC3CN(Cc4ccc(C(F)(F)F)cc4)CC3C2)n1 (centres unmarked) [Example 182, 1-(5-(4-(trifluoromethyl)benzyl)octahydro-pyrrolo[3,4-c]pyrrole-2-carbonyl)-1H-pyrazole-3-carboxamide]	> 75%	–	> 75%	> 75%	> 75%	–

Results, then the molecule that gave them:

inhibition at 1 µM [1]	IC50 [2]	inhibition at 1 µM [2]	inhibition at 1 µM [3]	inhibition at 1 µM [4]	IC50 [3]	SMILES
> 75%	100 to 1000 nM	> 75%	> 75%	25 to 50%	–	O=C(O)c1ccn(C(=O)N2CCC3(CCN(Cc4cc(Cl)cc(Cl)c4)C3)CC2)n1 [Example 162, 1-(2-(3,5-dichlorobenzyl)-2,8-diazaspiro[4.5]decane-8-carbonyl)-1H-pyrazole-3-carboxylic acid]
> 75%	–	> 75%	> 75%	50 to 75%	–	NC(=O)c1ccn(C(=O)N2CCN(Cc3ccc(N4CCOCC4)cc3Cl)CC2)n1 [Example 165, 1-(4-(2-chloro-4-morpholinobenzyl)piperazine-1-carbonyl)-1H-pyrazole-3-carboxamide]
0 to 25%	–	0 to 25%	50 to 75%	0 to 25%	–	O=C(O)c1ccn(C(=O)N2CCC3(CCN(Cc4ccc(N5CCCC5)c(Cl)c4)C3)CC2)n1 [Example 168, 1-(2-(3-chloro-4-(pyrrolidin-1-yl)benzyl)-2,8-diazaspiro[4.5]decane-8-carbonyl)-1H-pyrazole-3-carboxylic acid]
0 to 25%	–	0 to 25%	25 to 50%	0 to 25%	–	O=C(O)c1ccn(C(=O)N2CCC3(CCN(Cc4ccc(N5CCOCC5)cc4Cl)C3)CC2)n1 [Example 169, 1-(2-(2-chloro-4-morpholinobenzyl)-2,8-diazaspiro[4.5]decane-8-carbonyl)-1H-pyrazole-3-carboxylic acid]
> 75%	1000 to 10000 nM	0 to 25%	> 75%	0 to 25%	100 to 1000 nM	O=C(O)c1ccn(C(=O)N2CCC3(CCN(Cc4ccc(Cl)cc4N4CCCC4)C3)CC2)n1 [Example 171, 1-(2-(4-chloro-2-(pyrrolidin-1-yl)benzyl)-2,8-diazaspiro[4.5]decane-8-carbonyl)-1H-pyrazole-3-carboxylic acid]
> 75%	–	0 to 25%	50 to 75%	0 to 25%	–	O=C(O)c1ccn(C(=O)N2CCC3(CCN(Cc4ccc(C(F)(F)F)cc4N4CCC(F)CC4)CC3)C2)n1 [Example 186, 1-(8-(2-(4-fluoropiperidin-1-yl)-4-(trifluoromethyl)benzyl)-2,8-diazaspiro[4.5]decane-2-carbonyl)-1H-pyrazole-3-carboxylic acid]
